Series [1] concerns primary human osteoblasts. Nature of the series: Cell viability assay (7AAD, 48 hours), normal osteoblasts. The conditions noted are these: Osteoblast, 48 hours exposure, read-out: Normal cell lines IC50 (μM) Osteoblasts. It counts as cell-based. The method, then: (§1) Cell viability assays were performed as previously described. Briefly, cells were seeded in 96 well microtiterplates at a density of 3×10^4 cells per well in the presence of the indicated chemical. Cells were harvested 48 hours post-treatment, centrifuged at 1,300×g, washed in phosphate-buffered saline (PBS) and stained with 7AAD solution (2 μg/mL) (7-amino-actinomycin-D, Invitrogen, Carlsbad, Calif.) for 10 mins at room temperature. Viable cells were determined with the use of a FACS Calibur flow cytometer (Becton Dickinson Immunocytometry Systems), and analyzed with the use of FLOWJO (Tree Star, Inc) and GraphPad Prism (GraphPad Software Inc).
(§2) WE-68 and VH-64 Ewing's sarcoma cells were kindly supplied by F. van Valen (Department of Orthopaedic Surgery, Westfalische-Wilhelms-University, Germany).TC-252 and STA-ET-1 Ewing's sarcoma cells were kindly provided by G. Hamilton (Department of Surgery, University of Vienna, Austria) or P. Ambros (Children's Cancer Research Institute, St Anna Children's Hospital, Vienna, Austria). Primary human embryonic fibroblasts or primary human osteoblasts were collected from the Women's and Children's Hospital (North Adelaide, South Australia, Australia) or Royal Adelaide Hospital with patient consent. Mouse Embryonic Fibroblasts (MEFs) and its p53-null derivative were kindly supplied by Guillermina Lozano (Department of Genetics, Anderson Cancer Centre, University of Texas, Houston, Tex., USA). WE-68 cell lines were grown in RPMI-1640 media, whilst human embryonic fibroblasts and MEFs were grown in Dulbecco's Modified Eagle's Medium (DMEM). Media was supplemented with 10% FCS, 1% PSG and 10 mM HEPES. All cells were maintained at 37° C. in a humidified atmosphere of 5% CO2.

For series [2], the target named is T1, 20S proteasome CP-L activity (Oryctolagus cuniculus, UniProt A0A5F9DQW2).
T1 construct: Purified rabbit 20S proteasome
Nature of the series: In vitro proteasome activity assay, CP-L (Z-nLPnLD-AMC). It counts as biochemical, rabbit. The conditions noted are these: purified 20S proteasome; highest concentration tested 25,000 nM. As for the experimental part:
We initially determined the ability of the novel tripeptide MG132 analogues 1-6 and the macrocycles 3a and 4a to inhibit the three separate protease activities of the 20S proteasome (CT-L, -T-L and CP-L). The assays were performed in vitro using purified 20S proteasome/inhibitor mixtures, with the activity of each subunit of the proteasome assessed upon incubation with its respective target peptide. […] In addition, there is no apparent clear-cut preference for the length of tether (compare compounds 1 to 4), while the introduction of an aryl group at P3 (as in 6) is well tolerated.
Purified rabbit 20S proteasome and fluorogenic CT-L substrate (Suc-LLVY-AMC) were purchased from Boston Biochem (Cambridge, Mass., USA). The T-L and CP-L fluorogenic substrates (Ac-RLR-AMC and Z-nLPnLD-AMC) were purchased from Enzo Life Sciences (Farmingdale, N.Y., USA). The 20S proteasome was diluted to 0.2 μg/μL in 20S proteasome buffer (50 mM HEPES pH 7.6, 150 mM NaCl and 1 mM DDT) and stored at −80° C. Purified 20S proteasome (8 ng) was pre-incubated with the indicated concentrations of inhibitors for 15 minutes and subsequently added to the AMC-labeled substrate peptide (50 μM) in assay buffer (25 mM HEPES, pH 7.5, 0.5 mM EDTA, 0.05% NP-40, and 0.001% SDS (w/v)) at 37° C. for 2 hours. Fluorescent substrate cleavage by the 20S proteasome was linear during this incubation timeframe (Supplementary Figure S4. Hydrolysed 7-amino-4-methylcoumarin (AMC) was subsequently detected with the FLUOstar OPTIMA microplatefluorometer at excitation/emission of 390/460 nm. The activity was estimated in relative fluorescence units and half of the maximal inhibitory activity of the proteasome is represented by IC50 values. A minimum of three biological replicates were performed for each data point.

Series [3] relates to panel of sarcoma cell lines (WE-68, VH-64, STA-ET-1, TC-252). Nature of the series: Cell viability assay, panel of four sarcoma cell lines (average). It counts as cell-based. As for the experimental part:
as §1, §2

Series [4] concerns the target T2, 20S proteasome chymotrypsin-like (CT-L) activity (Oryctolagus cuniculus, UniProt G1T4Q9).
T2 sequence (G1T4Q9 1-263): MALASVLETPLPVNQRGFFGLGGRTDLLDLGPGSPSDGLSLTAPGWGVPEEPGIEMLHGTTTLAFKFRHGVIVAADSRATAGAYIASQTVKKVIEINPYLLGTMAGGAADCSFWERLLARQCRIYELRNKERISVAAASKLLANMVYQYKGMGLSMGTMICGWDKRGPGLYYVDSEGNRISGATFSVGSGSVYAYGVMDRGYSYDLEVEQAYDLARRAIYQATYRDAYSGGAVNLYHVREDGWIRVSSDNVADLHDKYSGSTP
Nature of the series: In vitro proteasome activity assay, CT-L (Suc-LLVY-AMC). The conditions noted are these: purified 20S proteasome. It counts as biochemical, rabbit. The method, then:
(§3) The assays were performed in vitro using purified 20S proteasome/inhibitor mixtures, with the activity of each subunit of the proteasome assessed upon incubation with its respective target peptide.
(§4) Purified rabbit 20S proteasome and fluorogenic CT-L substrate (Suc-LLVY-AMC) were purchased from Boston Biochem (Cambridge, Mass., USA). The T-L and CP-L fluorogenic substrates (Ac-RLR-AMC and Z-nLPnLD-AMC) were purchased from Enzo Life Sciences (Farmingdale, N.Y., USA). The 20S proteasome was diluted to 0.2 μg/μL in 20S proteasome buffer (50 mM HEPES pH 7.6, 150 mM NaCl and 1 mM DDT) and stored at −80° C. Purified 20S proteasome (8 ng) was pre-incubated with the indicated concentrations of inhibitors for 15 minutes and subsequently added to the AMC-labeled substrate peptide (50 μM) in assay buffer (25 mM HEPES, pH 7.5, 0.5 mM EDTA, 0.05% NP-40, and 0.001% SDS (w/v)) at 37° C. for 2 hours.

The test system of series [5] is STA-ET-1 Ewing's sarcoma cells. Nature of the series: Cell viability assay (7AAD, 48 hours), STA-ET-1. It counts as cell-based. The conditions noted are these: 48 hours exposure; read-out: Cancer cell lines IC50 (μM) STA-ET-1. As for the experimental part:
as §1, §2

Series [6] relates to normal cell lines (fibroblasts, osteoblasts). The experiment in a line: Cell viability assay, normal cell lines (average). It counts as cell-based. The conditions noted are these: Homo sapiens; average of fibroblasts and osteoblasts. The method, then: as §1, §2
The test system of series [7] is VH-64 Ewing's sarcoma cells. Nature of the series: Cell viability assay (7AAD, 48 hours), VH-64. The conditions noted are these: 48 hours exposure; read-out: Cancer cell lines IC50 (μM) VH-64. The format is cell-based. As for the experimental part:
as §1, §2

The target of series [8] is T3, 20S proteasome T-L activity (Oryctolagus cuniculus, UniProt G1SWK8).
T3 construct: purchased Boston Biochem
T3 sequence (G1SWK8 1-271): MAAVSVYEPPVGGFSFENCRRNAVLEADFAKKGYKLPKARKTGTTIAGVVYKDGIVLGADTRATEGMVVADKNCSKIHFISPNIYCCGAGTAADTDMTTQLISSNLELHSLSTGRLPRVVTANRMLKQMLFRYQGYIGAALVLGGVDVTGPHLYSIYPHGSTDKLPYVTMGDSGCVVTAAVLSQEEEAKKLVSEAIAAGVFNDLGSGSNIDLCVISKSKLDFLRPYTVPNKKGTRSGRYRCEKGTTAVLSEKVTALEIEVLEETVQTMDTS
The experiment in a line: In vitro proteasome activity assay, T-L (Ac-RLR-AMC). It counts as biochemical, rabbit. As to conditions: purified 20S proteasome; highest concentration tested 25,000 nM. As for the experimental part:
as §3, §4

Series [9] relates to WE-68 Ewing's sarcoma cells. The experiment in a line: Cell viability assay (7AAD, 48 hours), WE-68. As to conditions: 48 hours exposure; read-out: Cancer cell lines IC50 (μM) WE-68. It counts as cell-based. The method, then: as §1, §2
Series [10] relates to TC-252 Ewing's sarcoma cells. The experiment in a line: Cell viability assay (7AAD, 48 hours), TC-252. It counts as cell-based. The conditions noted are these: 48 hours exposure; read-out: Cancer cell lines IC50 (μM) TC-252. The method, then: as §1, §2
Series [11] concerns primary human embryonic fibroblasts. Nature of the series: Cell viability assay (7AAD, 48 hours), normal fibroblasts. As to conditions: Fibroblast, 48 hours exposure, read-out: Normal cell lines IC50 (μM) Fibroblasts. It counts as cell-based. The method, then:
as §1, §2

Series [12] deals with T4, ovine calpain 1 (o-CAPN1) (Ovis aries, UniProt B2ZA85).
T4 sequence (B2ZA85 1-716): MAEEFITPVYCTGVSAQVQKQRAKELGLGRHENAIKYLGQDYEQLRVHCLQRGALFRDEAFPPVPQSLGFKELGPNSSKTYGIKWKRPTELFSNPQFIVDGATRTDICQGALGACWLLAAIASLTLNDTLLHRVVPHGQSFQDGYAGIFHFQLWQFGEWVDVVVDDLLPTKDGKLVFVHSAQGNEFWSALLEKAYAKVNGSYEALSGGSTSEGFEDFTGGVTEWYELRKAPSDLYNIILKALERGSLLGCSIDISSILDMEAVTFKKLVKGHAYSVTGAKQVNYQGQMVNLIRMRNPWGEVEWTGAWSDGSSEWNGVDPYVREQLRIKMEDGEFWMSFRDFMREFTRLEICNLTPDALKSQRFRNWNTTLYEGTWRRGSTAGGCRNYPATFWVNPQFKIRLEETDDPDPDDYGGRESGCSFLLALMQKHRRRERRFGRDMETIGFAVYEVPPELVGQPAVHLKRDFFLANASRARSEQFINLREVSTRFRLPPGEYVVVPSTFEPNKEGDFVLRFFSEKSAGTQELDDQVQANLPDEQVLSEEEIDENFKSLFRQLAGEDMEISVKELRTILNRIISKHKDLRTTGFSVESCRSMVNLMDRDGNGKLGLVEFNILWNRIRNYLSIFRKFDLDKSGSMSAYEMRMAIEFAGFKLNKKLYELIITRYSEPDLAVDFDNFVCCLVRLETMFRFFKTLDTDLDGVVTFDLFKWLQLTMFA
T4 sequence (A0ACI6PYI8 1-265 partner): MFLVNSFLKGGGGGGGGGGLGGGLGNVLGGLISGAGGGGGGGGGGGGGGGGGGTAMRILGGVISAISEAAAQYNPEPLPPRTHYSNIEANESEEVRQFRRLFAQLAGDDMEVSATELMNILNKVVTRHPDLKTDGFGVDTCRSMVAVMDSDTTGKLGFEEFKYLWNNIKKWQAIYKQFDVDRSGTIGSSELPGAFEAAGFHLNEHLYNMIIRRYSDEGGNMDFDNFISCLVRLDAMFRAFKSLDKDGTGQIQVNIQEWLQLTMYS
Nature of the series: Fluorometric calpain assay (BODIPY-Fl casein), ovine calpain 1. It counts as biochemical. As for the experimental part: Fluorometric assays (excitation: 485 nm, emission: 520 nm) with ovine calpains 1 and 2 were done with a (BMG Labtech) Fluostar Optima plate reader at 37.0±0.2° C. in 96-well black (Greiner Bio-one) microassay plates. Calpains 1 and 2, partially purified from sheep lung by hydrophobic interaction and ion-exchange chromatography, were diluted in 20 mM MOPS, pH 7.5, containing 2 mM EGTA, 2 mM EDTA and 0.035% v/v 2-mercaptoethanol to give a linear response over the course of the assay. The substrate BODIPY-F1 casein was prepared as reported. {1} A 0.0005% solution of the substrate in 10 mM MOPS, pH 7.5, 10 mM CaCl2, 0.1 mM NaN3, 0.1% v/v 2-mercaptoethanol was prepared freshly before each experiment. […]
Inhibition studies were performed in the presence of seven different inhibitor concentrations and 1% v/v DMSO in a volume of 200 μL: 50 μl of inhibitor solution was added to a microassay well followed by 50 μl of calpain-containing solution. The reaction was initiated by adding 100 μl of BODIPY-F1 casein solution to each well and progress curves were monitored every 30 s over 570 s. Uninhibited enzyme activity was determined by adding 4% v/v DMSO in water instead of inhibitor solution. […]
The average value of rates obtained in two separate experiments, each in triplicate, was plotted versus the inhibitor concentration and IC50 values were calculated with the following equation: […]

Some results are limits rather than exact numbers.

T1 sequence (A0A5F9DQW2 1-212): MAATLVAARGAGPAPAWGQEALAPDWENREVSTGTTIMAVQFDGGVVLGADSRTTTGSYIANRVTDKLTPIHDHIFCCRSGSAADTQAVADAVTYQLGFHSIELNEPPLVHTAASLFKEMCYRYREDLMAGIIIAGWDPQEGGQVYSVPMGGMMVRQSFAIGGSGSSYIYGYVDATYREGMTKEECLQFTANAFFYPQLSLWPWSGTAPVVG

Regarding `C#CCOc1ccc(C[C@@H](C=O)NC(=O)[C@H](CC(C)C)NC(=O)[C@H](CN=[N+]=[N-])NC(=O)OCc2ccccc2)cc1` [Compound 1], the melting point (commonly the temperature of the solid-liquid transition) is 71 to 73 °C. Further, the IC50 (as a rule, the concentration at which inhibition is half-maximal) in series [1] was 23.7 µM. For the same molecule, the half-inhibitory concentration (IC50) in [2] is > 25000 nM. Besides, the concentration for half-maximal inhibition (IC50) in series [3] (average of four sarcoma cell lines, read-out: Average IC50 for cancer cell lines) was determined as 5.4 µM. In addition, in series [3] (fold change in potency (IC50) against cancer cell line versus normal cell line), the Therapeutic window entry is on record as “×3.3”. This molecule returned a half-maximal inhibitory concentration (IC50) in series [4] of 34 nM. The IC50 in [5] came out at 6.5 µM. The molecule further came in with a concentration for half-maximal inhibition (IC50) in series [6] of 18 µM. Further, the IC50 in [7] was found to be 5.8 µM. In series [8], the IC50 was > 25000 nM. Further, the concentration for half-maximal inhibition (IC50) in series [9] stood at 4.5 µM. Further, the IC50 in series [10] was determined as 5 µM. The IC50 in [11] came to 12.2 µM.
For `CC(C)C[C@@H](C=O)NC(=O)[C@@H]1CCCCCCCCCCCC(=O)c2ccc([nH]2)C(=O)N1` [Compound 1c, (S)—N—((S)-4-methyl-1-oxopentan-2-yl)-2,16-dioxo-3,20-diazabicyclo[15.2.1]icosa-1(19),17-diene-4-carboxamide], the “isoform selectivity o-CAPN2 vs. o-CAPN1” value in series [12] is given as “no isoform selectivity”.
Still for that read-out and setting: with `CC(C)CC(C=O)NC(=O)C1CCCCOc2ccc(cc2)CCC(=O)c2ccc([nH]2)C(=O)N1` (stereo not drawn) [Compound 2c] the entry was “no isoform selectivity”.

The values above are taken from patent publication US20150299250A1, “MACROCYCLIC COMPOUNDS AND USES THEREOF” (ADELAIDE RESEARCH & INNOVATION PTY LTD, priority 2012, published 2015).
